Source: US20260286396A1, “AXL KNOCK OUT CAR T CELLS AND METHODS FOR USE THEREOF” (priority 2023, published 2026)

System: CART19 cells
Experiment: RNA sequencing of CART19 cells with Ingenuity pathway analysis (pathways, upstream regulators)
Format: cell-based, human
Details: for Expr Log Ratio / Activation Z-Score / Predicted Activation State: 30 nM, 24 hours vs vehicle
Method: CART19 cells were isolated using CD4 and CD8 microbeads to […] the JeKo-1 target cells; this isolation step was performed twice to eliminate the possible contamination of JeKo-1 cells. RNA was isolated from the CART19 cells using QIAGEN RNEASY® Plus Mini Kit. RNA was further treated with DNase I (QIAGEN) and purified using RNA Clean & Concentrator (Zymo Research). […] The fastq files were viewed in FastQC to check for quality (Cox et al., Mol Ther., 29 (4): 1529-1540, 2020). After verifying the lack of adapter sequences with FastQC, Cutadapt (Martin, EMBnet, 17:10-12, 2011) was used to filter for reads greater than 32 base pairs. Output files were re-checked for quality using FastQC. The latest human reference genome (GRCh38.p13) was downloaded from NCBI. Genome index files were generated using STAR (Cox et al. 2020, supra, and Dobin et al., Bioinformatics, 29:15-21, 2012). Paired end reads from fastq files were mapped to the genome for each condition. HTSeq was used to generate expression counts for each gene (Cox et al. 2020, supra; and Putri et al., Bioinformatics, 38:2943-2945, 2022). […] The disruption efficiency of the CRISPR/Cas9 GM-CSF knockout was determined using targeted sequencing through PCR and TIDE analysis (software available at tide.nki.nl) as described elsewhere (Sakemura et al. 2021, supra).
RNA sequencing of CART19 cells was then performed. […] Data were analyzed with the use of QIAGEN Ingenuity Pathway Analysis (IPA) (digitalinsights.qiagen.com/IPA; Krämer et al., Bioinformatics 30 (4): 523-530, 2014).

[1] = CART19+JeKo-1, 30 nM TP-0903 vs vehicle, 24 h
[2] = CART19+JeKo-1, 30 nM TP-0903 vs vehicle, 24 h, flag bias
[3] = Upstream Regulator BRD4 (second entry, r376)

For CN1CCN(Cc2ccc(Nc3ncc(Cl)c(Nc4ccccc4S(=O)(=O)N(C)C)n3)cc2)CC1 [TP-0903, Dubermatinib], the “upstream regulator SREBF1 Predicted Activation State” value [1] was “inhibited”, the “upstream regulator SREBF2 Activation Z-Score” value [1] was −1.433 and the “upstream regulator SUCNR1 Activation Z-Score” value [1] was 0. For the same molecule, the “upstream regulator TEAD3 Activation Z-Score” value [1] was −1.633, the “upstream regulator TERT Activation Z-Score” value [1] was −1.412 and the “upstream regulator TGFB1 Activation Z-Score” value [1] was −1.429. For the same molecule, the “upstream regulator TGFB3 Activation Z-Score” value [1] was −0.894, the “upstream regulator TGFBR2 Activation Z-Score” value [1] was 0.658 and the “upstream regulator TLR2 Activation Z-Score” value [1] was −1.417. For the same molecule, the “upstream regulator TLR7 Predicted Activation State” value [1] was “inhibited”, the “upstream regulator TNFRSF4 Activation Z-Score” value [1] was −1.098 and the “upstream regulator TNFSF15 Activation Z-Score” value [1] was −0.425. The “upstream regulator TRAF3 Activation Z-Score” value [1] was −0.656, the “upstream regulator TREM1 Activation Z-Score” value [1] was −0.093 and the “upstream regulator VEGF Activation Z-Score” value [1] was −0.81. The “upstream regulator WNT1 Activation Z-Score” value [1] was −1.387, the “upstream regulator YAP1 Activation Z-Score” value [1] was 0.591 and the “upstream regulator COMMD1 Activation Z-Score” value [2] was 2. For the same molecule, the “upstream regulator CSF Activation Z-Score” value [2] was −0.816, the “upstream regulator EGLN Activation Z-Score” value [2] was 1.793 and the “upstream regulator IKZF2 Activation Z-Score” value [2] was 0.447. For the same molecule, the “upstream regulator MIR-17-5P (AND OTHER MIRNAS W/SEED AAAGUGC) Activation Z-Score” value [2] was 1.449, the “upstream regulator MIR-450A-5P (AND OTHER MIRNAS W/SEED UUUGCGA) Activation Z-Score” value [2] was 2.236 and the “upstream regulator MLXIPL Activation Z-Score” value [2] was −3.101. For the same molecule, the “upstream regulator PAF1 Activation Z-Score” value [2] was 0.762, the “upstream regulator TLR7 Activation Z-Score” value [2] was −2 and the “upstream regulator TPH1 Activation Z-Score” value [2] was −1.89. The “Expr Log Ratio” value (Upstream Regulator ADAM8) was −0.008, the “Activation Z-Score” value (Upstream Regulator ADRB) was 1.616 and the “Activation Z-Score” value (Upstream Regulator AHR) was −0.104. The “Expr Log Ratio” value (Upstream Regulator AHR) was −0.083, the “Activation Z-Score” value (Upstream Regulator AKT) was −2.79 and the “Predicted Activation State” value (Upstream Regulator AKT) was “inhibited”. The “Activation Z-Score” value (Upstream Regulator AREG) was −2.287, the “Expr Log Ratio” value (Upstream Regulator AREG) was 1.429 and the “Predicted Activation State” value (Upstream Regulator AREG) was “inhibited”. The “Activation Z-Score” value (Upstream Regulator BHLHE40) was −0.158, the “Expr Log Ratio” value (Upstream Regulator BHLHE40) was 0.043 and the “Expr Log Ratio” value (Upstream Regulator BIRC5) was −0.028. For the same molecule, the “Activation Z-Score” value (Upstream Regulator BNIP3L) was −1.463, the “Expr Log Ratio” value (Upstream Regulator BNIP3L) was −0.47 and the “Activation Z-Score” value (Upstream Regulator BRD4 (first entry, r300, no Expr Log Ratio)) was −0.213. For the same molecule, the “Activation Z-Score” value [3] was −2.16, the “Expr Log Ratio” value [3] was −0.067 and the “Predicted Activation State” value [3] was “inhibited”. The “Activation Z-Score” value (Upstream Regulator CASP8) was 1.72, the “Expr Log Ratio” value (Upstream Regulator CASP8) was 0.141 and the “Activation Z-Score” value (Upstream Regulator CD3) was −1.272. The “Activation Z-Score” value (Upstream Regulator CD40) was −0.284, the “Expr Log Ratio” value (Upstream Regulator CD40) was −0.283 and the “Activation Z-Score” value (Upstream Regulator CDKN2A) was 0.421. For the same molecule, the “Expr Log Ratio” value (Upstream Regulator CDKN2A) was −0.27, the “Activation Z-Score” value (Upstream Regulator CREB1) was −0.611 and the “Expr Log Ratio” value (Upstream Regulator CREB1) was −0.112. The “Activation Z-Score” value (Upstream Regulator CREM) was 0.286, the “Expr Log Ratio” value (Upstream Regulator CREM) was 0.351 and the “Activation Z-Score” value (Upstream Regulator CSF1) was −1.71. For the same molecule, the “Expr Log Ratio” value (Upstream Regulator CSF1) was −0.377, the “Activation Z-Score” value (Upstream Regulator CSF2) was −2.255 and the “Expr Log Ratio” value (Upstream Regulator CSF2) was −0.066. For the same molecule, the “Predicted Activation State” value (Upstream Regulator CSF2) was “inhibited”, the “Activation Z-Score” value (Upstream Regulator CTNNB1) was −2.082 and the “Expr Log Ratio” value (Upstream Regulator CTNNB1) was −0.154. For the same molecule, the “Predicted Activation State” value (Upstream Regulator CTNNB1) was “inhibited”, the “Activation Z-Score” value (Upstream Regulator DDIT4) was −0.816 and the “Expr Log Ratio” value (Upstream Regulator DDIT4) was −0.248. The “Activation Z-Score” value (Upstream Regulator EGF) was −1.744, the “Expr Log Ratio” value (Upstream Regulator EIF2S1) was 0.079 and the “Activation Z-Score” value (Upstream Regulator ELAVL1) was −1.431. The “Expr Log Ratio” value (Upstream Regulator ELAVL1) was 0.045, the “Activation Z-Score” value (Upstream Regulator EPAS1) was −0.365 and the “Expr Log Ratio” value (Upstream Regulator EPAS1) was −0.784. The “Activation Z-Score” value (Upstream Regulator ETS1) was −1.485, the “Expr Log Ratio” value (Upstream Regulator ETS1) was 0.129 and the “Activation Z-Score” value (Upstream Regulator FOXP3) was 1.094. The “Expr Log Ratio” value (Upstream Regulator FOXP3) was −0.21, the “Expr Log Ratio” value (Upstream Regulator GNAQ) was −0.381 and the “Activation Z-Score” value (Upstream Regulator GNAS) was 0.898. For the same molecule, the “Expr Log Ratio” value (Upstream Regulator GNAS) was 0.075, the “Activation Z-Score” value (Upstream Regulator HDL-CHOLESTEROL) was 1.89 and the “Activation Z-Score” value (Upstream Regulator HIF1A) was −1.763. The “Expr Log Ratio” value (Upstream Regulator HIF1A) was 0.181, the “Activation Z-Score” value (Upstream Regulator HRAS) was −1.187 and the “Activation Z-Score” value (Upstream Regulator ID2) was 1.609. The “Expr Log Ratio” value (Upstream Regulator ID2) was 0.114, the “Activation Z-Score” value (Upstream Regulator IFN BETA) was −0.892 and the “Activation Z-Score” value (Upstream Regulator IFNG) was −2.044. The “Expr Log Ratio” value (Upstream Regulator IFNG) was −0.559, the “Predicted Activation State” value (Upstream Regulator IFNG) was “inhibited” and the “Activation Z-Score” value (Upstream Regulator IGG) was 1.765. For the same molecule, the “Activation Z-Score” value (Upstream Regulator IL1B) was −1.164, the “Expr Log Ratio” value (Upstream Regulator IL1B) was 0.19 and the “Activation Z-Score” value (Upstream Regulator IL2) was −1.669. For the same molecule, the “Expr Log Ratio” value (Upstream Regulator IL2) was −0.397, the “Activation Z-Score” value (Upstream Regulator IL3) was −1.125 and the “Expr Log Ratio” value (Upstream Regulator IL3) was −0.843. The “Activation Z-Score” value (Upstream Regulator IL4) was −3.271, the “Expr Log Ratio” value (Upstream Regulator IL4) was −1.068 and the “Predicted Activation State” value (Upstream Regulator IL4) was “inhibited”. For the same molecule, the “Activation Z-Score” value (Upstream Regulator IL5) was −1.165, the “Expr Log Ratio” value (Upstream Regulator IL5) was −1.157 and the “Activation Z-Score” value (Upstream Regulator IL6) was −2.441. For the same molecule, the “Expr Log Ratio” value (Upstream Regulator IL6) was −1.319, the “Predicted Activation State” value (Upstream Regulator IL6) was “inhibited” and the “Activation Z-Score” value (Upstream Regulator IL13) was −1.489. For the same molecule, the “Expr Log Ratio” value (Upstream Regulator IL13) was 0, the “Activation Z-Score” value (Upstream Regulator IL17A) was 0.354 and the “Expr Log Ratio” value (Upstream Regulator IL17A) was −0.356. For the same molecule, the “Activation Z-Score” value (Upstream Regulator IL33) was −1.508, the “Activation Z-Score” value (Upstream Regulator IMMUNOGLOBULIN) was 0.465 and the “Expr Log Ratio” value (Upstream Regulator ITGA11) was −0.167. For the same molecule, the “Activation Z-Score” value (Upstream Regulator ITGA11, flag bias) was −1 and the “Activation Z-Score” value (Upstream Regulator KLF11) was −2.333.
